Assay results from paper PMC5881522, “Molecular Defects in Cardiac Myofilament Ca^2+-Regulation Due to Cardiomyopathy-Linked Mutations Can Be Reversed by Small Molecules Binding to Troponin” (Frontiers in Physiology, 2018).
Entries after “also recorded” stand apart in the source; their conditions may differ.

Columns and labels:
[1] = system: transgenic HCM mouse model; set-up: method as in Tadano et al., 2010; details: ref Tadano et al., 2010; cited from earlier work
[2] = system: isolated cardiomyocytes from ACTC E99K HCM transgenic mice; assay: Lusitropic effect of dobutamine in isolated cardiomyocytes; assay type: cell-based; details: blunted in ACTC E99K mouse cardiomyocytes; preliminary experiments
Excerpt: The main effect of uncoupling of the modulation of Ca^2+ sensitivity by TnI phosphorylation is the loss of the lusitropic response to beta adrenergic stimulation, which is usually accompanied by blunting of the whole physiological adrenergic response.

[3] = molecular target: T1, tropomyosin E180G mutant-containing thin filaments (Homo sapiens, UniProt P19429+P45379+P63316); assay: Single [Ca2+] in vitro motility assay screen for re-coupling; assay type: biochemical; details: for Coupling Difference (Initial Screen E180G): 100 μM compound, 0.037 μM Ca2+, difference between motility (%) in phosphorylated and unphosphorylated thin filaments, TPM1 E180G, >10% = re-coupling; for EC50: dose-response of % motility difference at 0.037 μM Ca2+, Hill fit
T1 construct: isolate troponin from 100 mg of donor heart tissue; from tissue; host or cells: troponin: human donor heart; tropomyosin: baculovirus/Sf9 (gift); actin: rabbit fast-twitch skeletal muscle
Method: (§1) Thin filaments were reconstituted with 10 nM rabbit skeletal or mouse cardiac muscle α-actin (labeled with TRITC phalloidin), tropomyosin (40–60 nM), and troponin (60 nM) to study Ca^2+-regulation of filament motility by the quantitative in vitro motility assay (IVMA) (Fraser and Marston, [1995]; Messer et al., [2007]). Thin filament movement over a bed of immobilized rabbit fast skeletal muscle heavy meromyosin (100 μg/ml) was compared in paired motility cells, in which troponin varied by a single factor (mutation, phosphorylation state, or treatment with drug). The temperature was set to 29°C. Filament movement was recorded and analyzed as previously described (Marston et al., [1996]), yielding two parameters, the fraction of filaments moving and the speed of moving filaments. Only the fraction of filaments motile is used in this study.
For drug screening, motility was measured with paired phosphorylated and unphosphorylated tropomyosin E180G mutant-containing thin filaments at a fixed 0.037 μM Ca^2+. Most assays were single measurements.
For the rapid screening of compounds, we devised a single Ca^2+ concentration assay. This is illustrated in Figures 2A,B for quercetin. The test system contains skeletal muscle actin, human sequence recombinant tropomyosin 1.1 containing the E180G HCM-associated mutation and human cardiac troponin from donor hearts in the phosphorylated and unphosphorylated form. At 0.037 μM Ca^2+ the filaments are about 40% motile irrespective of phosphorylation level whilst when quercetin is added the phosphorylated Ca^2+ activity curve shifts to the right and % motility at 0.037 μM Ca^2+ drops, whilst the unphosphorylated level is unchanged. We have set a difference between phosphorylated and unphosphorylated >10% as indicating re-coupling activity. This assay method can also be used to construct a dose-response curve as shown. We investigated compounds in 4 categories.
Figure 2 Single [Ca^2+] screen for re-coupling compounds. […] Solid lines, phosphorylated state; dotted lines, unphosphorylated state. Purple lines and points, E180G thin filaments; green lines and points, E180G thin filaments + Quercetin (B) Dose -response curve for quercetin recoupling activity measured at a constant concentration of 0.037 μM Ca^2+. INSET, kinetic analysis of dose response curve; difference between phosphorylated and unphosphorylated states is plotted against quercetin concentration. The Hill equation is fitted to the data, EC50 = 8 μM. (C,D) The effect of 100 μM drug treatment on the difference between % of motility of phosphorylated and unphosphorylated tropomyosin E180G mutant-containing thin filaments at 0.037 μM Ca^2+. (C) EGCG-related molecules (for structures 1–28 see Figure S1 and Table 1). (D) Silybin, related compounds and other HsP90 inhibitors and Ca^2+ desensitizers. The threshold for positive re-coupling was set at a 10% difference (dotted line).

wild-type thin filaments = molecular target: T2, wild-type thin filaments (Homo sapiens, UniProt P19429+P45379+P63316); assay: IVMA Ca2+-activation curves, wild-type thin filaments; assay type: biochemical; details: ratio of EC50 in presence and absence of compound, phosphorylated and unphosphorylated states
T2 construct: isolate troponin from 100 mg of donor heart tissue; from tissue; host or cells: troponin: human donor heart; actin: rabbit skeletal muscle
Method: as §1
The fraction motile was measured over a range of Ca^2+ concentrations to generate Ca^2+-activation curves. The data were fitted to the 4-variable Hill equation to yield a value for EC50 and nH. Most assays of the effect of compounds are single measurements.
EC50 for Ca2+ activation of phosphorylated and unphosphorylated thin filaments incorporating troponin from HCM and DCM tissue samples that are uncoupled was measured by in vitro motility assay in the presence and absence of 100 µM EGCG. […]

[4] = system: mutant-containing thin filaments; assay: IVMA Ca2+-activation curves, collected uncoupled mutant thin filaments; assay type: biochemical; details: every uncoupling mutation tested; 100 μM EGCG
Method: as §1, with “Only the fraction of filaments motile is used in this study.” left out
(§2) The fraction motile was measured over a range of Ca^2+ concentrations to generate Ca^2+-activation curves. […]
We measured the Ca^2+ activation of contractility using an in vitro motility assay that measures the movement of reconstituted thin filaments over a bed of immobilized myosin heads. […] Thus, the effect of EGCG is independent of the mutation that induced uncoupling; in addition, both in man and cat, HCM cases were found where no mutation in sarcomeric genes was detected yet the thin filaments were uncoupled and they could also be re-coupled by EGCG (Bayliss et al., [2012]; Messer et al., [2016]). […]

[5] = molecular target: T3, thin filaments containing TnC G159D (TNNC1 G159D, DCM) (Homo sapiens, UniProt P19429+P45379+P63316, G159D); assay: IVMA Ca2+-activation curves, TNNC1 G159D; assay type: biochemical; details: phosphorylated and unphosphorylated TnC G159D thin filaments
T3 construct: TnC G159D mutant troponin was extracted from a mutant human heart sample; from tissue; host or cells: mutant human heart sample (troponin); rabbit skeletal muscle (actin)
Excerpt: Recombinant human sequence tropomyosin was a gift from Kristen Nowak and Elyshia MacNamara, University, Western Australia. Wild-type α-tropomyosin (Tpm1.1) and mutant E180G tropomyosin were expressed in a baculovirus/Sf9 system (Akkari et al., [2002]; Marston et al., [2013]). Skeletal muscle F-actin and myosin were isolated from rabbit fast-twitch skeletal muscle as previously described (Messer et al., [2007]). TnC G159D mutant troponin was extracted from a mutant human heart sample (Dyer et al., [2009]), E99K mutant cardiac actin was extracted from the E99K transgenic mouse heart (Song et al., [2013]).
Thin filaments were reconstituted with 10 nM rabbit skeletal or mouse cardiac muscle α-actin (labeled with TRITC phalloidin), tropomyosin (40–60 nM), and troponin (60 nM) to study Ca^2+-regulation of filament motility by the quantitative in vitro motility assay (IVMA) (Fraser and Marston, [1995]; Messer et al., [2007]). […] Filament movement was recorded and analyzed as previously described (Marston et al., [1996]), yielding two parameters, the fraction of filaments moving and the speed of moving filaments. […]
as §2

[6] = dose response of motile percentage, Figure S2B

Row | Structure (SMILES) | impaired pump function due to diastolic dysfunction, in words [1] | lusitropic effect of dobutamine, in words [2] | Coupling Difference (Initial Screen E180G) [3] [%] | EC50 [3] [µM] | effect on Ca2+-sensitivity of wild-type thin filaments, in words (wild-type thin filaments) | restoration of coupling in uncoupled thin filaments, in words [4] | dose at which recoupling begins [3, 6] [µM] | dose of peak recoupling [3, 6] [µM] | effect on Ca2+-activation curves (desensitizer / re-coupler), in words [5]
1 | O=C(O[C@@H]1Cc2c(O)cc(O)cc2O[C@@H]1c1cc(O)c(O)c(O)c1)c1cc(O)c(O)c(O)c1 [EGCG, epigallocatechin-3 gallate] | restored the impaired pump function | anomalous | 23.0 | 59 | significant desensitizer | restore the coupling | – | – | –
2 | COc1cc([C@@H]2Oc3cc([C@H]4Oc5cc(O)cc(O)c5C(=O)[C@@H]4O)ccc3O[C@H]2CO)ccc1O [Silybin B] | – | restored | 55 | 39 | – | – | 50 | 100 | pure recoupler; also recorded: pure recoupling
